Data taken from patent publication US20110251379A1, “COMPOUNDS USEFUL FOR TREATING NEURODEGENERATIVE DISORDERS” (Satori Pharmaceuticals, Inc., priority 2010, published 2011).
Like-named read-outs stand apart in the source and are kept apart here.

Key:
Assay type in all cases: cell-based
Aβ-40 = assay: MSD Human (6E10) Ab 3-PLEX elisa, conditioned media of 2B7 cells: Aβ-40; details: for IC50: Aβ-40 (superscript b)
In short: (§1)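 We dose confluent 2B7 cells for 5 hours at 37° C, keeping DMSO at 1%. Diluted media then incubates on antibody-coated plates either overnight at 4 degrees C or 2 hours at room temp.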

Aβ-42 = assay: MSD Human (6E10) Ab 3-PLEX elisa, conditioned media of 2B7 cells: Aβ-42; details: for IC50: Aβ-42 (superscript c)
In short: as §1

Aβ-38 = assay: MSD Human (6E10) Ab 3-PLEX elisa, conditioned media of 2B7 cells: Aβ-38; details: for IC50: Aβ-38 (superscript a)
In short: as §1

[1] = Homo sapiens, read-out: 50% reduction value
[2] = Homo sapiens, read-out: IC50 range

CC(=O)OC[C@@]1(C)C[C@@H](C)[C@H]2C(O1)[C@H](O)[C@@]1(C)C3CC[C@H]4C(C)(C)C(O)CC[C@@]45C[C@@]35CC[C@]21C (stereo partly drawn)
IC50 (Aβ-40; [1]): 1 to 10 µM | IC50 (Aβ-42; [1]): > 10 µM | IC50 (Aβ-38; [1]): 1 to 10 µM

CCO[C@@H](C1C[C@@H](C)[C@H]2C(O1)[C@H](O)[C@@]1(C)C3CC[C@H]4C(C)(C)C(OC5CN(Cc6ccccc6)CCO5)CC[C@@]45C[C@@]35CC[C@]21C)C(C)(C)O (stereo partly drawn) [drawing 1307]
IC50 (Aβ-40; read-out: 50% reduction value): 1 to 10 µM | IC50 (Aβ-42; read-out: IC50 range): 1 to 10 µM | IC50 (Aβ-38; read-out: IC50 range): 1 to 10 µM

C[C@@H]1CC(COC(=O)C2CC2)OC2[C@H]1[C@@]1(C)CC[C@@]34C[C@@]35CC[C@H](O[C@H]3CN(C6COC6)CCO3)C(C)(C)[C@@H]5CCC4[C@]1(C)[C@H]2O (stereo partly drawn)
IC50 (Aβ-40; [1]): > 10 µM | inhibition at 20 µM (Aβ-42; Homo sapiens, Aβ-42, 20 μM): < 25% | IC50 (Aβ-38; [1]): 1 to 10 µM

CC(C)C(=O)N1CCO[C@@H](O[C@H]2CC[C@]34C[C@]35CC[C@]3(C)C6C(OC(CN(C)C(N)=O)C[C@H]6C)[C@H](O)[C@@]3(C)C5CC[C@H]4C2(C)C)C1 (stereo partly drawn)
IC50 (Aβ-40; [1]): > 10 µM | IC50 (Aβ-42; [1]): 1 to 10 µM | IC50 (Aβ-38; [1]): 1 to 10 µM

CCO[C@@H](C1C[C@@H](C)[C@H]2C(O1)[C@H](O)[C@@]1(C)C3CC[C@H]4C(C)(C)C(OC(=O)NC5CCNC5=O)CC[C@@]45C[C@@]35CC[C@]21C)C(C)(C)O (stereo partly drawn) [drawing 1289]
IC50 (Aβ-40; read-out: IC50 range): 1 to 10 µM | IC50 (Aβ-40; [1]): 1 to 10 µM | IC50 (Aβ-42; [1]): < 1 µM | IC50 (Aβ-42; [2]): < 1 µM | IC50 (Aβ-38; [1]): < 1 µM

C[C@@H]1CC(COC(=O)C(C)(C)C)OC2[C@H]1[C@@]1(C)CC[C@@]34C[C@@]35CC[C@H](O[C@H]3CN(C6COC6)CCO3)C(C)(C)[C@@H]5CCC4[C@]1(C)[C@H]2O (stereo partly drawn)
IC50 (Aβ-40; [1]): > 10 µM | IC50 (Aβ-42; [1]): > 10 µM | IC50 (Aβ-38; [1]): 1 to 10 µM

COC(=O)O[C@H](C(C)C)C1C[C@@H](C)[C@H]2C(O1)[C@H](O)[C@@]1(C)C3CC[C@H]4C(C)(C)[C@@H](O)CC[C@@]45C[C@@]35CC[C@]21C (stereo partly drawn)
inhibition at 20 µM (Aβ-40; Homo sapiens, Aβ-40, 20 μM): 25 to 75% | inhibition at 20 µM (Aβ-42; Homo sapiens, Aβ-42, 20 μM): 25 to 75% | inhibition at 20 µM (Aβ-38; Homo sapiens, Aβ-38, 20 μM): 25 to 75%

CC(=O)OCC1CC(C)C2C(O1)C(O)C1(C)C3CCC4C(C)(C)C(OC(=O)c5cccnc5)CCC45CC35CCC21C (stereo not drawn) [drawing 1210]
IC50 (Aβ-40; read-out: 50% reduction value): 1 to 10 µM | IC50 (Aβ-40; read-out: IC50 range): > 10 µM | IC50 (Aβ-42; read-out: 50% reduction value): 1 to 10 µM | IC50 (Aβ-42; read-out: IC50 range): 1 to 10 µM | IC50 (Aβ-38; read-out: 50% reduction value): 1 to 10 µM

CC(=O)O[C@@H]([C@H]1C[C@@H](C)C2C(O1)[C@H](O)[C@@]1(C)[C@@H]3CC[C@H]4C(C)(C)[C@@H](O[C@@H]5OC[C@@H](O)[C@H](O)[C@H]5O)CC[C@@]45C[C@@]35CC[C@]21C)C(C)(C)O (stereo partly drawn) [drawing 1160]
IC50 (Aβ-40; [2]): 1 to 10 µM | IC50 (Aβ-42; [1]): < 1 µM | IC50 (Aβ-42; [2]): < 1 µM | IC50 (Aβ-38; [2]): < 1 µM

CC(C)[C@@H](OC(=O)N1CCC1)C1C[C@@H](C)[C@H]2C(O1)[C@H](O)[C@@]1(C)C3CC[C@H]4C(C)(C)C(OC(=O)N5CCn6c(nnc6C(F)(F)F)C5)CC[C@@]45C[C@@]35CC[C@]21C (stereo partly drawn)
inhibition at 20 µM (Aβ-40; Homo sapiens, Aβ-40, 20 μM): 25 to 75% | IC50 (Aβ-42; [1]): < 1 µM | IC50 (Aβ-38; [1]): < 1 µM

COC(=O)NCCC1C[C@@H](C)C2C(O1)[C@H](O)[C@@]1(C)[C@@H]3CC[C@H]4C(C)(C)[C@@H](OC5CN(C(=O)CC6CC6)CCO5)CC[C@@]45C[C@@]35CC[C@]21C (stereo partly drawn)
inhibition at 100 µM (Aβ-40; Homo sapiens, Aβ-40, 100 μM): 25 to 75% | IC50 (Aβ-42; [2]): 1 to 10 µM | IC50 (Aβ-38; [2]): 1 to 10 µM

CCO[C@@H](C1C[C@@H](C)[C@H]2C(O1)[C@H](O)[C@@]1(C)C3CC[C@H]4C(C)(C)[C@@H](O)CC[C@@]45C[C@@]35CC[C@]21C)C(C)(C)O (stereo partly drawn)
IC50 (Aβ-40; [2]): < 1 µM | inhibition at 20 µM (Aβ-40; Homo sapiens, Aβ-40, 20 μM): 25 to 75% | IC50 (Aβ-42; [1]): < 1 µM | IC50 (Aβ-42; [2]): < 1 µM | IC50 (Aβ-38; [1]): < 1 µM | inhibition at 20 µM (Aβ-38; Homo sapiens, Aβ-38, 20 μM): 25 to 75%

C[C@@H]1CC(COC(=O)C2CCC2)OC2[C@H]1[C@@]1(C)CC[C@@]34C[C@@]35CC[C@H](O[C@H]3CN(C6COC6)CCO3)C(C)(C)[C@@H]5CCC4[C@]1(C)[C@H]2O (stereo partly drawn)
inhibition at 20 µM (Aβ-40; Homo sapiens, Aβ-40, 20 μM): < 25% | inhibition at 20 µM (Aβ-42; Homo sapiens, Aβ-42, 20 μM): < 25% | inhibition at 20 µM (Aβ-38; Homo sapiens, Aβ-38, 20 μM): 25 to 75%

CCC1CC(C)C2C(O1)C(O)C1(C)C3CCC4C(C)(C)C(O)CCC45CC35CCC21C (stereo not drawn)
% Inh. (range) (Aβ-40; Aβ-40, 20 μM): E (% inhibition of 25-75%) | % Inh. (range) (Aβ-42; Aβ-42, 20 μM): F (% inhibition of <25%) | % Inh. (range) (Aβ-38; Aβ-38, 20 μM): E (% inhibition of 25-75%)

C[C@@H]1CC([C@H](Oc2ncccn2)C(C)(C)O)OC2C1[C@@]1(C)CC[C@@]34C[C@@]35CCC(OC(=O)N3CCOCC3)C(C)(C)[C@@H]5CCC4[C@]1(C)[C@H]2O (stereo partly drawn)
IC50 (Aβ-40; [2]): > 10 µM | IC50 (Aβ-42; [1]): > 10 µM | inhibition at 20 µM (Aβ-38; Homo sapiens, Aβ-38, 20 μM): 25 to 75%

CCO[C@@H](C1C[C@@H](C)[C@H]2C(O1)[C@H](O)[C@@]1(C)C3CC[C@H]4C(C)(C)C(OC(=O)N5CC[C@H](C(=O)O)C5)CC[C@@]45C[C@@]35CC[C@]21C)C(C)(C)O (stereo partly drawn)
IC50 (Aβ-40; [1]): > 10 µM | IC50 (Aβ-42; [1]): < 1 µM | IC50 (Aβ-42; [2]): < 1 µM | IC50 (Aβ-38; [1]): 1 to 10 µM

CC1CC(C2OCC(=O)OC2(C)C)OC2C1C1(C)CCC34CC35CCC(OC3CN(C6COC6)CCO3)C(C)(C)C5CCC4C1(C)C2O (stereo not drawn)
IC50 (Aβ-40; read-out: 50% reduction value): 1 to 10 µM | IC50 (Aβ-42; read-out: 50% reduction value): 1 to 10 µM | IC50 (Aβ-38; read-out: 50% reduction value): 1 to 10 µM
